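48-hour exposure; five concentrations; linearly interpolated endpoints. TGI is the concentration that stops growth completely.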
Assays:
Assay in all cases: NCI tumour cell line growth inhibition, 48 h
[1] = tested on: A498 renal
[2] = tested on: DLD-1 colon
[3] = tested on: DMS 114 small cell lung
[4] = tested on: HOP-62 NSCLC
[5] = tested on: KM20L2 colon
[6] = tested on: LXFL 529 NSCLC
[7] = tested on: M19-MEL melanoma
[8] = tested on: DMS 273 small cell lung
[9] = tested on: SNB-78 CNS
[10] = tested on: XF 498 CNS

| Structure (SMILES) | TGI [1] [µM] | TGI [4] [µM] | further results |
| --- | --- | --- | --- |
| O=C(/C=C/CC(O)(c1ccccc1)c1ccccc1)Nc1ccccc1Cl | > 100 | > 100 | TGI [2]: > 100 µM; TGI [3]: > 100 µM; TGI [5]: > 100 µM; TGI [6]: > 100 µM; TGI [7]: > 100 µM |
| Oc1ccc(C[C@@H]2CN[C@H](Cc3ccc(O)c(Br)c3)CN2)cc1 | > 100 | > 100 | – |
| COc1ccc(CCn2ccc(=O)c(O)c2C)cc1OC | – | > 100 | – |
| CC1OC2OC3C(OCC(O)C3O)OC(=O)[C@]34CCC(C)(C)CC3C3=CCC5[C@@]6(C)C[C@H](O)[C@H](OC7OC(CO)C(O)C(O)C7OC7OC(COC(=O)CC(C)(O)CC(=O)OC1C(OC1OC(CO)C(O)C(O)C1O)C2O)C(O)C(O)C7O)[C@@](C)(CO)C6CC[C@@]5(C)[C@]3(C)CC4 (stereo partly drawn) | – | 3.13 | – |
| CO[C@H](C)[C@](O)(C(=O)OCC1=CCN2CC[C@@H](O)[C@H]12)C(C)C | > 100 | > 100 | – |
| CC(=O)OC1COC(N2c3ccccc3[C@@H]3CCc4c([nH]c5ccccc45)[C@@H]32)C(OC(C)=O)C1OC(C)=O (mixture of isomers) | 62 | > 100 | – |
| CN1C2CCC1C(CO)C(=O)C2 (stereo not drawn) | > 100 | > 100 | – |
| COc1cccc(Nc2nc3c([nH]2)c(=O)n(C)c(=O)n3C)c1 | – | > 10 | – |
| C=C1C[C@@H]2CC[C@@]34CC5O[C@H]6C(O[C@H]7CC[C@H](CC(=O)O[C@@H]8[C@@H](C)[C@@H]9O[C@@H]%10C[C@]%11(C[C@@H]%12O[C@]%13(C[C@H](C)[C@@H]%14O[C@@H]%15CC(C(COC(C)=O)OC(C)=O)O[C@@H]%15C[C@@H]%14O%13)C[C@H](C)[C@@H]%12O%11)O[C@@H]%10C[C@@H]9O[C@H]8CC8O[C@@H](CC[C@@H]1O2)C[C@@H](C)C8(O)CO)O[C@@H]7[C@@H]6O3)[C@H]5O4 (stereo partly drawn) | > 1 | > 1 | – |
| Fc1cccc(F)c1C1SCc2nc3cc(Cl)ccc3n21 (stereo not drawn) | – | > 100 | – |
| COC(=O)[C@@H]1[C@H]2CC[C@]3(C)[C@@H](OC(C)=O)CC[C@H]3[C@@H]2CC[C@H]1C1(C)SCCS1 | > 100 | 53.6 | – |
| CCc1nc2c([nH]1)C(=O)c1ccccc1C2=O | > 100 | > 100 | TGI [2]: > 100 µM; TGI [3]: 70.6 µM; TGI [8]: > 100 µM; TGI [7]: 31.8 µM; TGI [9]: > 100 µM; TGI [10]: 67.1 µM |
| CC(=O)N=S(NC(=O)c1ccc(C)cc1)C(Cl)(Cl)Cl (stereo not drawn) | – | > 100 | – |
| O=C(O)C12C3C4(C(=O)O)C1C1(C(=O)O)C2C3(C(=O)O)C41 (stereo not drawn) | > 100 | > 100 | – |
| O=C1CCC(CCc2nc3ccccc3[nH]2)(c2ccccc2)C(=O)N1 (stereo not drawn) | > 100 | > 100 | – |
| CCOC(=O)OC1(c2ccccc2)CCN(C)CC1 | > 100 | > 100 | – |

| Structure (SMILES) | TGI [1] [µM] | TGI [4] [µM] | further results |
| --- | --- | --- | --- |
| C=CCN(c1cc(OC)c2[nH]c(C(=O)O)c(C)c2c1[N+](=O)[O-])S(C)(=O)=O | > 100 | > 100 | – |
| CC(C)(C)C#CI1OC(=O)c2ccccc21 | 24 | 27.2 | – |
| CN(C)CN1C(=O)/C(=N\n2c(-c3ccncc3)n[nH]c2=S)c2ccccc21 | > 100 | 84.7 | – |
| Brc1ccc(/C(N=N/C(=N\Sc2ccccc2)c2ccc(Br)cc2)=N/Sc2ccccc2)cc1 | > 100 | > 100 | – |
| O=C(O)Cn1c[n+](NC(=O)Cc2ccccc2)cn1 | > 10 | > 10 | – |
| Nc1cc2nc(-c3ccccc3)cn2cn1 | 80.3 | > 100 | – |
| Cn1c(=O)c2[nH]c(Nc3cccc(Cl)c3)nc2n(C)c1=O | – | > 10 | – |
| COC(=O)Cc1c2n(c3ccccc13)C(=O)N1c3ccccc3C(CC(=O)OC)C21 (stereo not drawn) | > 100 | 38.5 | – |
| CC1CCc2sc3[nH]c(=S)n(C)c(=O)c3c2C1 (stereo not drawn) | – | > 100 | – |
| COc1ccccc1Cn1c2c(c3cc(O)ccc31)C(=O)c1ccccc1C2=O | > 100 | > 100 | – |
| Cc1ccc2nc(Nc3ccccc3C)c(Nc3ccccc3C)nc2c1 | 69.6 | > 100 | – |
| Cc1cccc2c(N)c3cccc(C(=O)NCC[N+](C)(C)[O-])c3nc12 | – | 36.5 | – |
| O=C(O[C@@H](/C=C/c1ccccc1)P1(=O)N(Cc2ccccc2)[C@@H]2CCCC[C@H]2N1Cc1ccccc1)c1ccccc1 | > 100 | > 100 | – |
| CCC1(c2ccc(OC)c(OC)c2)CCN2C(=O)C(O)CC21 (stereo not drawn) | – | > 100 | – |
| CN(C)CCN1C(=O)N(CCN(C)C)c2c3cc(O)ccc3nc3c([N+](=O)[O-])ccc1c23 | 29.6 | – | – |

Reference: PubChem BioAssay (NCI)
